Data published in patent publication US10669235B2, “Indole derivatives and their use as protein kinase inhibitors” (RESPIVERT LIMITED, priority 2016, dated 2020).
Counter-ions that a name gives are not always drawn. Like-named read-outs stand apart in the source and are kept apart here.

Legend:
PDGFRβ [1] = target: T1, PDGFRβ (Homo sapiens (Human), UniProt P09619); experiment: PDGFRβ enzyme inhibition (ADP-Glo assay); assay type: biochemical; settings: mean, n = 2 (nintedanib n = 34)
[2] = Pharmacokinetic measurements in rats (i.v., i.t., oral); assay type: in vivo; settings: rat; for concentration at 0.1 h / concentration at 1.5 h / concentration at 6 h / concentration at 24 h / Kp at 0.1 h / Kp at 1.5 h / Kp at 6 h / Kp at 24 h: male, CD; for concentration at 0.1 h / concentration at 1.5 h / concentration at 6 h / concentration at 24 h: lung; for concentration at 0.1 h: read-out: lung concentration (nM) at time 0.1 h; for concentration at 1.5 h: read-out: lung concentration (nM) at time 1.5 h; for concentration at 6 h: read-out: lung concentration (nM) at time 6 h; for concentration at 24 h: read-out: lung concentration (nM) at time 24 h; for Kp at 0.1 h / Kp at 1.5 h / Kp at 6 h / Kp at 24 h: lung/plasma
PAMPA permeability assay = assay type: in vitro ADME; settings: pH 7, PAMPA; for Papp at 5 h, 10 µM: pH 7, 10 μM
PDGFRβ [3] = target: T1, PDGFRβ; experiment: PDGF-BB induced phosphorylation of PDGFRβ in fibroblasts (MRC5, HTRF); assay type: cell-based; settings: MRC5 cells, PDGFBB stimulation; read-out: PDGFBB-induced PDGFRβ phosphorylation in MRC5 cells (IC50)
MRC5 cells = experiment: Cell viability assay in MRC5 cells (MTT)

T1 sequence (P09619 33-1106): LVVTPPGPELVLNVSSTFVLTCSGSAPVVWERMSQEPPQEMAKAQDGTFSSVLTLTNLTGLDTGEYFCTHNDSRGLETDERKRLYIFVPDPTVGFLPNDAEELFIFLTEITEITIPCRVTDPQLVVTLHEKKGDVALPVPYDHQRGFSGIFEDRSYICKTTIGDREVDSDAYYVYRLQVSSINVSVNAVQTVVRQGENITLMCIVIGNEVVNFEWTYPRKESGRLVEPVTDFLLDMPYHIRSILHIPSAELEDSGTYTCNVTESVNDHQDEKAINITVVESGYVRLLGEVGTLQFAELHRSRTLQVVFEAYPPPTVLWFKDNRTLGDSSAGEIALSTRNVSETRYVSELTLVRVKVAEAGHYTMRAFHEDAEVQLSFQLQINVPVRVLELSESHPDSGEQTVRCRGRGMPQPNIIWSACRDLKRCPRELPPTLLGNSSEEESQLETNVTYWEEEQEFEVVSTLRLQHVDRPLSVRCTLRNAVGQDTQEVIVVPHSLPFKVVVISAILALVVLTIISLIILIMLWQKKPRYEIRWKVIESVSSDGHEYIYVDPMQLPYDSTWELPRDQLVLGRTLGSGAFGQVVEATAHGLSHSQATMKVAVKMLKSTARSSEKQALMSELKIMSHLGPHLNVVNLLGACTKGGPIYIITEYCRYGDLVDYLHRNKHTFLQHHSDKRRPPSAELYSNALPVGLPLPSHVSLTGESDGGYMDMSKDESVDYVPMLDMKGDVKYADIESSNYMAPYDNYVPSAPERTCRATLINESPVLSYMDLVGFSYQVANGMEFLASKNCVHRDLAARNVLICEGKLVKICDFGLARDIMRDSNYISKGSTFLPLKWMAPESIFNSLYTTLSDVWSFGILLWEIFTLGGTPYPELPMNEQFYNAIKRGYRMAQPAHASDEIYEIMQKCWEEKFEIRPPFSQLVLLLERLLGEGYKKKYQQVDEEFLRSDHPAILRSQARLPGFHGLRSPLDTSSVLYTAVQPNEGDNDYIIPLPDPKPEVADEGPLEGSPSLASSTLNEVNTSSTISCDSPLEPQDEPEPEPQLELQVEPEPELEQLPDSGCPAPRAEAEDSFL

COC(=O)c1cc2c(cc1C)/C(=C(/Nc1ccc(C(=O)NCC3CCN(C)CC3)cc1)c1ccccc1)C(=O)N2 [Example 3, (Z)-Methyl 5-methyl-3-(((4-(((1-methylpiperidin-4-yl)methyl)carbamoyl)phenyl)amino)(phenyl)methylene)-2-oxoindoline-6-carboxylate, formate]
Ki (PDGFRβ [1]): 6.86 nM | concentration at 0.1 h ([2]; iv): 761 nM | concentration at 1.5 h ([2]; iv): 700 nM | concentration at 6 h ([2]; iv): 321 nM | concentration at 24 h ([2]; iv): 135 nM | concentration at 0.1 h ([2]; other: intra-tracheal): 2600 nM | concentration at 1.5 h ([2]; other: intra-tracheal): 4990 nM | concentration at 6 h ([2]; other: intra-tracheal): 4680 nM | concentration at 24 h ([2]; other: intra-tracheal): 1860 nM | Kp at 0.1 h ([2]; iv, read-out: lung/plasma ratio at time 0.1 h): 38 | Kp at 1.5 h ([2]; iv, read-out: lung/plasma ratio at time 1.5 h): 154 | Kp at 6 h ([2]; iv, read-out: lung/plasma ratio at time 6 h): 120 | Kp at 24 h ([2]; iv, read-out: lung/plasma ratio at time 24 h): > 72 | Kp at 0.1 h ([2]; other: intra-tracheal, read-out: lung/plasma conc ratio at time 0.1 h): 100 | Kp at 1.5 h ([2]; other: intra-tracheal, read-out: lung/plasma conc ratio at time 1.5 h): 1910 | Kp at 6 h ([2]; other: intra-tracheal, read-out: lung/plasma conc ratio at time 6 h): 2150 | Kp at 24 h ([2]; other: intra-tracheal, read-out: lung/plasma conc ratio at time 24 h): > 1000 | Lung conc i.t./i.v. Ratio at time 0.1 h ([2]; 0.1 h): 3 | Lung conc i.t./i.v. Ratio at time 1.5 h ([2]; 1.5 h): 7 | Lung conc i.t./i.v. Ratio at time 6 h ([2]; 6 h): 15 | Lung conc i.t./i.v. Ratio at time 24 h ([2]; 24 h): 14 | BAL % administered dose at time 0.1 h ([2]; i.t. dose 0.1 (nintedanib 0.42), 0.1 h): 14% | BAL % administered dose at time 1.5 h ([2]; i.t. dose 0.1 (nintedanib 0.42), 1.5 h): 1.2% | BAL % administered dose at time 6 h ([2]; i.t. dose 0.1 (nintedanib 0.42), 6 h): 0.7% | BAL % administered dose at time 24 h ([2]; i.t. dose 0.1 (nintedanib 0.42), 24 h): 0.3% | BAL % administered dose at time 0.1 h ([2]; i.v. dose 0.1 (nintedanib 0.42), 0.1 h): 0.1% | BAL % administered dose at time 1.5 h ([2]; i.v. dose 0.1 (nintedanib 0.42), 1.5 h): 0.1% | BAL % administered dose at time 6 h ([2]; i.v. dose 0.1 (nintedanib 0.42), 6 h): 0.03% | BAL % administered dose at time 24 h ([2]; i.v. dose 0.1 (nintedanib 0.42), 24 h): 0.02% | recovery at 5 hr, 10 μM (PAMPA permeability assay): 92.4% | Papp at 5 h, 10 µM (PAMPA permeability assay): 0.00775 ×10⁻⁶ cm/s | IC50 (PDGFRβ [3]): 12.7 nM | Cell viability at 100 nM (%) (MRC5 cells): 88% | Cell viability at 300 nM (%) (MRC5 cells): 86.1% | Cell viability at 1000 nM (%) (MRC5 cells): 79.5%

COC(=O)c1cc2c(cc1C)/C(=C(/Nc1ccc(C(=O)N3CC[C@@H](CN(C)C)[C@H](O)C3)cc1)c1ccccc1)C(=O)N2 [Example 33, (Z)-Methyl 3-(((4-((3S,4S)-4-((dimethylamino)methyl)-3-hydroxypiperidine-1-carbonyl)phenyl)amino)(phenyl)methylene)-5-methyl-2-oxoindoline-6-carboxylate]
Ki (PDGFRβ [1]): 6.82 nM | recovery at 5 hr, 10 μM (PAMPA permeability assay): 69.1% | Papp at 5 h, 10 µM (PAMPA permeability assay): 0.0269 ×10⁻⁶ cm/s | IC50 (PDGFRβ [3]): 2.32 nM | Cell viability at 100 nM (%) (MRC5 cells): 86.6% | Cell viability at 300 nM (%) (MRC5 cells): 63.1% | Cell viability at 1000 nM (%) (MRC5 cells): 19.8%

COC(=O)c1cc2c(cc1C)/C(=C(/Nc1ccc(C(=O)NCCN3CCCN(C(C)=O)CC3)cc1)c1ccccc1)C(=O)N2 [Example 34, (Z)-Methyl 3-(((4-((2-(4-acetyl-1,4-diazepan-1-yl)ethyl)carbamoyl)phenyl)amino)(phenyl)methylene)-5-methyl-2-oxoindoline-6-carboxylate]
Ki (PDGFRβ [1]): 14.4 nM | recovery at 5 hr, 10 μM (PAMPA permeability assay): 41.1% | Papp at 5 h, 10 µM (PAMPA permeability assay): 0.00748 ×10⁻⁶ cm/s | IC50 (PDGFRβ [3]): 4.71 nM | Cell viability at 100 nM (%) (MRC5 cells): 82.9% | Cell viability at 300 nM (%) (MRC5 cells): 74.4% | Cell viability at 1000 nM (%) (MRC5 cells): 16.2%

COCCN(C)CCNC(=O)c1ccc(N/C(=C2\C(=O)Nc3cc(C(=O)OC)c(C)cc32)c2ccccc2)cc1 [Example 35, (Z)-Methyl 3-(((4-((2-((2-methoxyethyl)(methyl)amino)ethyl)carbamoyl)phenyl)amino)(phenyl)methylene)-5-methyl-2-oxoindoline-6-carboxylate, 0.5 formate]
Ki (PDGFRβ [1]): 17 nM | recovery at 5 hr, 10 μM (PAMPA permeability assay): 79.2% | Papp at 5 h, 10 µM (PAMPA permeability assay): 10.7 ×10⁻⁶ cm/s | IC50 (PDGFRβ [3]): 17.3 nM | Cell viability at 100 nM (%) (MRC5 cells): 99.8% | Cell viability at 300 nM (%) (MRC5 cells): 122.5% | Cell viability at 1000 nM (%) (MRC5 cells): 99.1%

COC(=O)c1cc2c(cc1C)/C(=C(/Nc1ccc(C(=O)NCC3(N(C)C)CCOCC3)cc1)c1ccccc1)C(=O)N2 [Example 36, (Z)-Methyl 3-(((4-(((4-(dimethylamino)tetrahydro-2H-pyran-4-yl)methyl)carbamoyl)phenyl)amino)(phenyl)methylene)-5-methyl-2-oxoindoline-6-carboxylate]
Ki (PDGFRβ [1]): 15.9 nM | recovery at 5 hr, 10 μM (PAMPA permeability assay): 77.4% | Papp at 5 h, 10 µM (PAMPA permeability assay): 8.96 ×10⁻⁶ cm/s | IC50 (PDGFRβ [3]): 9.96 nM | Cell viability at 100 nM (%) (MRC5 cells): 87.3% | Cell viability at 300 nM (%) (MRC5 cells): 77.2% | Cell viability at 1000 nM (%) (MRC5 cells): 69.6%

COC(=O)c1cc2c(cc1C)/C(=C(/Nc1ccc(C(=O)N3CCC(O)(CN4CCCC4)CC3)cc1)c1ccccc1)C(=O)N2 [Example 37, (Z)-Methyl-3-(((4-(4-hydroxy-4-(pyrrolidin-1-ylmethyl)piperidine-1-carbonyl)phenyl)amino)(phenyl)methylene)-5-methyl-2-oxoindoline-6-carboxylate, formate]
Ki (PDGFRβ [1]): 7.54 nM | recovery at 5 hr, 10 μM (PAMPA permeability assay): 68.2% | Papp at 5 h, 10 µM (PAMPA permeability assay): 0.0542 ×10⁻⁶ cm/s | IC50 (PDGFRβ [3]): 5.28 nM | Cell viability at 100 nM (%) (MRC5 cells): 93.6% | Cell viability at 300 nM (%) (MRC5 cells): 83.4% | Cell viability at 1000 nM (%) (MRC5 cells): 18.4%

COC(=O)c1cc2c(cc1C)/C(=C(/Nc1ccc(C(=O)N3CCC(CO)(CN(C)C)CC3)cc1)c1ccccc1)C(=O)N2 [Example 38, (Z)-Methyl-3-(((4-(4-((dimethylamino)methyl)-4-(hydroxymethyl)piperidine-1-carbonyl)phenyl)amino)(phenyl)methylene)-5-methyl-2-oxoindoline-6-carboxylate]
Ki (PDGFRβ [1]): 4.79 nM | recovery at 5 hr, 10 μM (PAMPA permeability assay): 70.3% | Papp at 5 h, 10 µM (PAMPA permeability assay): 0.0269 ×10⁻⁶ cm/s | IC50 (PDGFRβ [3]): 1.7 nM | Cell viability at 100 nM (%) (MRC5 cells): 70.7% | Cell viability at 300 nM (%) (MRC5 cells): 63% | Cell viability at 1000 nM (%) (MRC5 cells): 4.2%

COCCNC(=O)CN1CCN(C(=O)c2ccc(N/C(=C3\C(=O)Nc4cc(C(=O)OC)c(C)cc43)c3ccccc3)cc2)CC1 [Example 39, (Z)-Methyl-3-(((4-(4-(2-((2-methoxyethyl)amino)-2-oxoethyl)piperazine-1-carbonyl)phenyl)amino)(phenyl)methylene)-5-methyl-2-oxoindoline-6-carboxylate]
Ki (PDGFRβ [1]): 14.1 nM | recovery at 5 hr, 10 μM (PAMPA permeability assay): 85.7% | Papp at 5 h, 10 µM (PAMPA permeability assay): 0.633 ×10⁻⁶ cm/s | IC50 (PDGFRβ [3]): 5.95 nM | Cell viability at 100 nM (%) (MRC5 cells): 96.2% | Cell viability at 300 nM (%) (MRC5 cells): 73.3% | Cell viability at 1000 nM (%) (MRC5 cells): 36.7%

COC(=O)c1cc2c(cc1C)/C(=C(/Nc1ccc(C(=O)NCC3(N(C)C)CCC3)cc1)c1ccccc1)C(=O)N2 [Example 40, (Z)-Methyl 3-(((4-(((1-(dimethylamino)cyclobutyl)methyl)carbamoyl)phenyl)amino)(phenyl)methylene)-5-methyl-2-oxoindoline-6-carboxylate, 0.3 formate]
Ki (PDGFRβ [1]): 12.8 nM | recovery at 5 hr, 10 μM (PAMPA permeability assay): 56% | Papp at 5 h, 10 µM (PAMPA permeability assay): 26.5 ×10⁻⁶ cm/s | IC50 (PDGFRβ [3]): 13.4 nM | Cell viability at 100 nM (%) (MRC5 cells): 95.4% | Cell viability at 300 nM (%) (MRC5 cells): 88% | Cell viability at 1000 nM (%) (MRC5 cells): 82.9%

COC(=O)c1cc2c(cc1C)/C(=C(/Nc1ccc(C(=O)N3CCC4(CC3)C(=O)NCCCN4C)cc1)c1ccccc1)C(=O)N2 [Example 43, (Z)-Methyl-5-methyl-3-(((4-(7-methyl-12-oxo-3,7,11-triazaspiro[5.6]dodecane-3-carbonyl)phenyl)amino)(phenyl)methylene)-2-oxoindoline-6-carboxylate]
Ki (PDGFRβ [1]): 25.2 nM | Papp at 5 h, 10 µM (PAMPA permeability assay): 0.865 ×10⁻⁶ cm/s | IC50 (PDGFRβ [3]): 2.31 nM | Cell viability at 300 nM (%) (MRC5 cells): 58.8% | Cell viability at 1000 nM (%) (MRC5 cells): 6.4%

COC(=O)c1cc2c(cc1C)/C(=C(/Nc1ccc(C(=O)NCCN3CCN(S(C)(=O)=O)CC3)cc1)c1ccccc1)C(=O)N2 [Example 44, (Z)-Methyl-5-methyl-3-(((4-((2-(4-(methylsulfonyl)piperazin-1-yl)ethyl)carbamoyl)phenyl)amino)(phenyl)methylene)-2-oxoindoline-6-carboxylate]
Ki (PDGFRβ [1]): 17.8 nM | recovery at 5 hr, 10 μM (PAMPA permeability assay): 71.7% | Papp at 5 h, 10 µM (PAMPA permeability assay): 0.00879 ×10⁻⁶ cm/s | IC50 (PDGFRβ [3]): 3.33 nM | Cell viability at 100 nM (%) (MRC5 cells): 98.4% | Cell viability at 300 nM (%) (MRC5 cells): 78.4% | Cell viability at 1000 nM (%) (MRC5 cells): 60.4%

COC(=O)c1cc2c(cc1C)/C(=C(/Nc1ccc(C(=O)N3CCC(O)(CN4CCOCC4)CC3)cc1)c1ccccc1)C(=O)N2 [Example 45, (Z)-Methyl-3-(((4-(4-hydroxy-4-(morpholinomethyl)piperidine-1-carbonyl)phenyl)amino)(phenyl)methylene)-5-methyl-2-oxoindoline-6-carboxylate]
Ki (PDGFRβ [1]): 15.1 nM | recovery at 5 hr, 10 μM (PAMPA permeability assay): 77% | Papp at 5 h, 10 µM (PAMPA permeability assay): 0.0893 ×10⁻⁶ cm/s | IC50 (PDGFRβ [3]): 2.42 nM | Cell viability at 100 nM (%) (MRC5 cells): 80.1% | Cell viability at 300 nM (%) (MRC5 cells): 71.7% | Cell viability at 1000 nM (%) (MRC5 cells): 62.8%
